This test relates to P388 leukemia ip, CD2F1 mice, survival T/C. Briefly: NCI In Vivo Anticancer Drug Screen. Data for tumor model P388 Leukemia (intraperitoneal) in CD2F1 (CDF1) mice. The following applies: endpoint: median survival time, higher = longer survival. The method, boiled down:
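Mice carrying the transplanted tumor received test compound or vehicle. Survival was recorded in each group, and the value is the treated-group measurement divided by that of the vehicle-treated control group.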

The mark [1] stands for this setting: dose: 12.5 mg/kg/injection, schedule: Q01DX005 (ip), vehicle: saline with Tween-80.
The mark [2] stands for this setting: dose: 50.0 mg/kg/injection, schedule: Q01DX005 (ip), vehicle: saline with Tween-80.
Where [3] appears, read: dose: 50.0 mg/kg/injection, schedule: Q01DX009 (ip), vehicle: saline.
Setting [4] is: dose: 50.0 mg/kg/injection, schedule: Q01DX005 (ip), vehicle: Klucel (hydroxypropylcellulose) (HPC).
[5] abbreviates: dose: 100.0 mg/kg/injection, schedule: Q01DX005 (ip), vehicle: Klucel (hydroxypropylcellulose) (HPC).
The mark [6] stands for this setting: dose: 200.0 mg/kg/injection, schedule: Q01DX005 (ip), vehicle: Klucel (hydroxypropylcellulose) (HPC).
Where [7] appears, read: dose: 100.0 mg/kg/injection, schedule: Q01DX009 (ip), vehicle: saline.
[8] abbreviates: dose: 200.0 mg/kg/injection, schedule: Q01DX009 (ip), vehicle: saline.
[9] abbreviates: dose: 100.0 mg/kg/injection, schedule: Q01DX005 (ip), vehicle: saline with Tween-80.
Setting [10] is: dose: 200.0 mg/kg/injection, schedule: Q01DX005 (ip), vehicle: saline with Tween-80.
The mark [11] stands for this setting: dose: 50.0 mg/kg/injection, schedule: Q01DX009 (ip), vehicle: saline with Tween-80.
Setting [12] is: dose: 100.0 mg/kg/injection, schedule: Q01DX009 (ip), vehicle: saline with Tween-80.
Setting [13] is: dose: 200.0 mg/kg/injection, schedule: Q01DX009 (ip), vehicle: saline with Tween-80.

Where “and” joins values, the source holds several entries; their conditions need not be identical. Equal entries are not always repeated. Inconclusive results and toxic doses are left out.

Consider `COC(=O)c1c(COC(=O)NC(C)C)c2n(c1C)CS(=O)(=O)C2`, for which the T/C is 96 % of control under setting [1]; 95 % of control (dose: 25.0 mg/kg/injection, schedule: Q01DX005 (ip), vehicle: saline with Tween-80); 92 % of control under setting [2].
Consider `C#CC(C(C)C)N(CCO)CCCC` (stereo not drawn), for which the T/C (dose: 60.0 mg/kg/injection, schedule: Q01DX005 (ip), vehicle: saline with Tween-80) is 105 % of control; the T/C (dose: 120.0 mg/kg/injection, schedule: Q01DX005 (ip), vehicle: saline with Tween-80) is 104 % of control; the T/C (dose: 240.0 mg/kg/injection, schedule: Q01DX005 (ip), vehicle: saline with Tween-80) is 102 % of control.
`COC(=O)/C(=C1/OC(=O)C(c2ccccc2)=C1O)c1ccccc1`: the T/C was 99 % of control (dose: 6.25 mg/kg/injection, schedule: Q01DX009 (ip), vehicle: Klucel (hydroxypropylcellulose) (HPC)); 94 % of control (dose: 12.5 mg/kg/injection, schedule: Q01DX009 (ip), vehicle: Klucel (hydroxypropylcellulose) (HPC)); 99 % of control (dose: 25.0 mg/kg/injection, schedule: Q01DX009 (ip), vehicle: Klucel (hydroxypropylcellulose) (HPC)); 93 % of control (dose: 50.0 mg/kg/injection, schedule: Q01DX009 (ip), vehicle: Klucel (hydroxypropylcellulose) (HPC)); 95 % of control under setting [3].
As to `COc1cc(/C=C/C2=C(C)C(=O)CC(c3cc(OC)c(OC)c(OC)c3)C2C)cc(OC)c1OC` (stereo not drawn), the T/C (dose: 12.5 mg/kg/injection, schedule: Q04DX003 (ip), vehicle: Klucel (hydroxypropylcellulose) (HPC)) is 100 % of control; the T/C (dose: 25.0 mg/kg/injection, schedule: Q04DX003 (ip), vehicle: Klucel (hydroxypropylcellulose) (HPC)) is 101 % of control; the T/C (dose: 50.0 mg/kg/injection, schedule: Q04DX003 (ip), vehicle: Klucel (hydroxypropylcellulose) (HPC)) is 97 % of control.
As to `CC(C)CC(Nc1ncnc2c1CCc1ccccc1-2)C(=O)O` (stereo not drawn), the T/C is 100 % of control (dose: 50.0 mg/kg/injection, schedule: Q04DX002 (ip), vehicle: saline with Tween-80); 90 % of control (dose: 100.0 mg/kg/injection, schedule: Q04DX002 (ip), vehicle: saline with Tween-80); 99 % of control (dose: 200.0 mg/kg/injection, schedule: Q04DX002 (ip), vehicle: saline with Tween-80).
With `O=C(NO)c1cccc2ccccc12`, the T/C was 106 % of control under setting [4], 106 % of control under setting [5] and 113 % of control under setting [6].
`O=C(O)c1cc2c(c(C(=O)O)c1O)CCCC2`: the T/C by setting is: (dose: 6.25 mg/kg/injection, schedule: Q01DX005 (ip), vehicle: saline) 94 % of control; (dose: 12.5 mg/kg/injection, schedule: Q01DX005 (ip), vehicle: saline) 92 % of control; (dose: 25.0 mg/kg/injection, schedule: Q01DX005 (ip), vehicle: saline) 94 % of control.
Regarding `N#CCS(=O)(=O)OCCCl`, the T/C is 120 % of control under setting [1] and 151 % of control (dose: 37.5 mg/kg/injection, schedule: Q01DX005 (ip), vehicle: saline with Tween-80).
Take `O=S1(=O)C=C(c2ccccc2)S(=O)(=O)C=C1c1ccccc1`: the T/C is, setting by setting: (dose: 100.0 mg/kg/injection, schedule: Q04DX003 (ip), vehicle: saline with Tween-80) 102 % of control; (dose: 200.0 mg/kg/injection, schedule: Q04DX003 (ip), vehicle: saline with Tween-80) 96 % of control.
Turning to `CN(C)CCC#N`, the T/C was 117 % of control under setting [3], 105 % of control under setting [7] and 100 % of control under setting [8].
Turning to `O=c1cccc(C(Cl)(Cl)Cl)o1`, the T/C (dose: 30.0 mg/kg/injection, schedule: Q01DX005 (ip), vehicle: saline + Tween-80 + alcohol) was 105 % of control; the T/C (dose: 60.0 mg/kg/injection, schedule: Q01DX005 (ip), vehicle: saline + Tween-80 + alcohol) was 104 % of control and 105 % of control; the T/C (dose: 120.0 mg/kg/injection, schedule: Q01DX005 (ip), vehicle: saline + Tween-80 + alcohol) was 105 % of control and 97 % of control.
In the case of `C=C1C[C@]23C[C@@]1(O)CC[C@H]2[C@@]12C=C[C@@H](O1)C(C(=O)OCC)=C2[C@@H]3O`, the T/C runs as follows: (dose: 3.75 mg/kg/injection, schedule: Q01DX005 (ip), vehicle: saline) 109 % of control; (dose: 7.5 mg/kg/injection, schedule: Q01DX005 (ip), vehicle: saline) 100 % of control; (dose: 15.0 mg/kg/injection, schedule: Q01DX005 (ip), vehicle: Klucel (hydroxypropylcellulose) (HPC)) 97 % of control; (dose: 15.0 mg/kg/injection, schedule: Q01DX005 (ip), vehicle: saline) 107 % of control; (dose: 60.0 mg/kg/injection, schedule: Q01DX005 (ip), vehicle: Klucel (hydroxypropylcellulose) (HPC)) 117 % of control.
As to `Nc1nccc(C(=O)c2ccccc2O)n1`, the T/C is 98 % of control under setting [3], 95 % of control under setting [7] and 99 % of control under setting [8].
Turning to `O=C1c2ccccc2C2(O)C(=O)c3ccccc3C12` (stereo not drawn), the T/C is, setting by setting: (dose: 100.0 mg/kg/injection, schedule: Q01DX001 (ip), vehicle: Klucel (hydroxypropylcellulose) (HPC)) 102 % of control; (dose: 200.0 mg/kg/injection, schedule: Q01DX001 (ip), vehicle: Klucel (hydroxypropylcellulose) (HPC)) 105 % of control; (dose: 400.0 mg/kg/injection, schedule: Q01DX001 (ip), vehicle: Klucel (hydroxypropylcellulose) (HPC)) 108 % of control.
On to `CCOc1c(N=Nc2ccccc2OC)c(-c2ccccc2)nn1C(=S)S`, for which the T/C is 102 % of control under setting [2], 101 % of control under setting [9] and 108 % of control under setting [10].
With `OCC1OC(SC2OC(CO)C(O)C(O)C2O)C(O)C(O)C1O` (stereo not drawn), the T/C is 114 % of control (dose: 100.0 mg/kg/injection, schedule: Q01DX001 (ip), vehicle: water); 94 % of control (dose: 200.0 mg/kg/injection, schedule: Q01DX001 (ip), vehicle: water); 100 % of control (dose: 400.0 mg/kg/injection, schedule: Q01DX001 (ip), vehicle: water).
As to `COc1cc(OC)c(NC(=S)Nc2cc(Cl)c(OC)cc2OC)cc1Cl`, the T/C is, setting by setting: under setting [11], 106 % of control; under setting [12], 102 % of control; under setting [13], 103 % of control.
In the same order, the values of `CCOC(=O)c1ccc(NC(CCN2CCOCC2)=NC(C)(C)C)cc1` are 111 % of control, 106 % of control and 105 % of control.
`CC1=Nc2ccccc2SC2(C1)C(C1COC(C)(C)O1)OC1OC(C)(C)OC12` (stereo not drawn): the T/C under setting [2] was 93 % of control, the T/C under setting [9] is 94 % of control and the T/C under setting [10] was 92 % of control.
On to `CN1CCCC(O)(C(=O)c2ccccc2)C1` (stereo not drawn), for which the T/C under setting [3] was 108 % of control; the T/C under setting [7] was 90 % of control; the T/C (dose: 100.0 mg/kg/injection, schedule: Q04DX003 (ip), vehicle: Klucel (hydroxypropylcellulose) (HPC)) is 102 % of control; the T/C under setting [8] is 90 % of control; the T/C (dose: 200.0 mg/kg/injection, schedule: Q04DX003 (ip), vehicle: Klucel (hydroxypropylcellulose) (HPC)) is 104 % of control.
Take `C[C@]12C=CC(=O)C=C1CC[C@@H]1[C@@H]2[C@@H](O)C[C@@]2(C)[C@H]1CC[C@]2(O)C(=O)CF`: the T/C reads like this: (dose: 6.25 mg/kg/injection, schedule: Q01DX009 (ip), vehicle: suspension in saline) 100 % of control; (dose: 12.5 mg/kg/injection, schedule: Q01DX009 (ip), vehicle: suspension in saline) 93 % of control; (dose: 25.0 mg/kg/injection, schedule: Q01DX009 (ip), vehicle: suspension in saline) 102 % of control; (dose: 50.0 mg/kg/injection, schedule: Q01DX009 (ip), vehicle: suspension in saline) 96 % of control.
For the compound `N#Cc1ccc(-c2ccccc2)nc1Cl`, the T/C is, setting by setting: (dose: 25.0 mg/kg/injection, schedule: Q01DX005 (ip), vehicle: Klucel (hydroxypropylcellulose) (HPC)) 98 % of control; under setting [4], 98 % of control; under setting [5], 93 % of control; under setting [6], 102 % of control.
Consider `CCCOc1ccc(C(=O)NCc2cccnc2)cc1C(=O)NCc1cccnc1`, for which the T/C is 100 % of control under setting [2], 99 % of control under setting [9] and 100 % of control under setting [10].
On to `N#CCCSc1ccccc1N=Cc1ccccc1O`, for which the T/C by setting is: under setting [3], 101 % of control; under setting [7], 99 % of control; under setting [8], 95 % of control.

For the origin of these results see PubChem BioAssay AID330 (DTP/NCI, 2004).
